This note sets out measurements from patent US20180064665A1 (UNIVERSITY-INDUSTRY COOPERATION GROUP OF KYUNG HEE …, priority 2015, published 2018).

In one data set the test system is Raw264.7 cells. As to the kind of experiment: Measurement of cell viability (MTT). The format is cell-based, mouse. The following applies: with LPS 1 μg/mL, 24 hrs, mean of three measurements, read-out: Cell viability (IC50 for cell toxicity). The protocol:
Raw264.7 cells (macrophage cell line from mouse) were obtained from Korean Cell Line Bank (KCLB) and cultured in Dulbecco's modified Eagle's medium containing 10% FBS, penicillin (100 units/ml), streptomycin sulfate (100 μg/ml) at 37° C. and 5% CO2 in humidified environment.
Cells were collected by centrifugation and scraping, and seeded at 1×10^5 cells/well in a 96 well plate containing 100 μl of RPMI 1640 medium with 10% FBS. 3β, 4β-epoxy-8α-isobutyryloxyguaia-1(10), 11, (13)-diene-12.6α-olide was dissolved in dimethylsulfoxide (DMSO) solvent and the concentration of DMSO was not more than 0.1% in all experiments. Next day, test compounds and LPS (1 μg/mL) were added and the plate were cultured for 24 hrs. After washing cells once, 50 μl of the medium containing 5 mg/ml MTT but without FBS was added and cells were cultured at 37° C. for 4 hrs. And then, the medium was removed, formazan blue formed in the cells was dissolved in 100 μl of DMSO, and an absorbance was measured at 540 nm to obtain IC50 values for cell toxicity. […] The results are shown in the above Table 1 and the values are means of three measurements.

A further data set relates to PGE2 production. As to the kind of experiment: Inhibitory activity on PGE2 production in LPS-treated Raw264.7 cells (PGE2 immunoassay). It counts as cell-based, mouse. The settings on record: LPS 1 μg/mL; for IC50: mean of three measurements, read-out: Inhibition of PGE2 production IC50. The procedure:
Raw264.7 cells (macrophage cell line from mouse) were obtained from Korean Cell Line Bank (KCLB) and cultured in Dulbecco's modified Eagle's medium (DMEM) containing 10% Fetal Bovine Serum (FBS), penicillin (100 units/mL), streptomycin sulfate (100 μg/mL) at 37° C. and 5% CO2 in humidified environment. RAW264.7 cells at 5×10^5 cells/mL were seeded at 1 mL/well in 24 wells using DMEM, left overnight, replaced with a fresh medium and then treated with a test compound of an appropriate concentration. The cells were incubated for 1 hr and then treated with LPS at 1 μg/mL and incubated for 24 hrs (or proper period). A supernatant was taken and diluted five times. 150 μL of an analysis buffer was added to Non Specific Binding (NSB) well, and 100 μL of an analysis buffer was added to zero point standard (B0) well. 100 μL of a standard sample was added to the other wells and 50 μL of PGE2 conjugate was added (excluding NSB). 50 μL of PGE2 antibody solution was added and wells were shaken for 2 hrs. Each well was suctioned and washed with a wash buffer five times. Each 200 μL of para-Nitrophenyl phosphate (pNPP) substrate was added to the all wells and the wells were stored in a bench at room temperature for 1 hr. 50 μL of stop solution was added and an absorbance was measured at 405 nm. The amount of PGE2 was quantified using the measured absorbance and a standard curve and compared to a group treated with LPS only to obtain a concentration inhibiting 50% (IC50). The results are shown in the following Table 1 and the presented values are means of three measurements.

In the case of `Cc1ccc(S(=O)(=O)N(NC(=O)Oc2ccc(OCc3ccccc3)cc2)c2ccccc2)cc1` [Example 8, N-phenyl-N′-(4-benzyloxyphenoxycarbonyl)-4-methylphenylsulfonhydrazide], the IC50 is above 100 nM in the data set on Raw264.7 cells and 32.6 nM in the data set with PGE2 production. Besides, the “Inhibition of PGE2 production %” value in the data set with PGE2 production (compound at 0.1 μM) is recorded as 66.6 (0.1) %.
Regarding `COc1ccccc1OC(=O)NN(c1ccccc1)S(=O)(=O)c1ccc(Cl)cc1` [Example 11, N-phenyl-N′-(2-methoxyphenoxycarbonyl)-4-chlorophenylsulfonhydrazide], the IC50 in the data set with Raw264.7 cells was above 10000 nM; with PGE2 production, 3.52 nM. Moreover, in the data set on PGE2 production (compound at 0.01 μM), the “Inhibition of PGE2 production %” value is 85.9 (0.01) %.
For “N-phenyl-N′-(4-benzyloxyphenoxycarbonyl)-2-mesitylenesulfonhydrazide [Example 17]”, the IC50 in the data set on Raw264.7 cells was above 1000 nM; in the data set on PGE2 production, 81.5 nM. Further, the “Inhibition of PGE2 production %” value in the data set with PGE2 production (compound at 0.1 μM) was 60.0 (0.1) %.
On the same counts, the results for `COc1ccccc1OC(=O)NN(c1ccccc1)S(=O)(=O)c1ccc(C)cc1` [Example 3, N-phenyl-N′-(2-methoxyphenoxycarbonyl)-4-methylphenylsulfonhydrazide] are above 100 nM, 34 nM and 91.9 (0.1) %.
As for `Cc1ccc(S(=O)(=O)N(NC(=O)Oc2ccc3c(c2)CCC3)c2ccccc2)cc1` [Example 25, N-phenyl-N′-(2,3-dihydro-1H-inden-5-oxycarbonyl)-4-methylphenylsulfonhydrazide], the results for the IC50 in the data set with Raw264.7 cells and in the data set with PGE2 production were above 1000 nM and 66.7 nM, respectively. For the same compound, the “Inhibition of PGE2 production %” value with PGE2 production (compound at 0.1 μM) is 40.4 (0.1) %.
For the compound `O=C(NN(c1ccccc1)S(=O)(=O)c1ccc(C(F)(F)F)cc1)Oc1ccc(OCc2ccccc2)cc1` [Example 21, N-phenyl-N′-(4-benzyloxyphenoxycarbonyl)-4-trifluoromethylphenylsulfonhydrazide], the IC50 in the data set with Raw264.7 cells is above 100 nM; in the data set on PGE2 production, 47.1 nM. Besides, the “Inhibition of PGE2 production %” value with PGE2 production (compound at 0.1 μM) is listed as 65.5 (0.1) %.
The like results for `O=C(NN(c1ccccc1)S(=O)(=O)c1ccc(C(F)(F)F)cc1)Oc1ccc2c(c1)CCC2` [Example 27, N-phenyl-N′-(2,3-dihydro-1H-inden-5-oxycarbonyl)-4-trifluorophenylsulfonhydrazide] were, in that order, above 1000 nM, 55.8 nM and 51.1 (0.1) %.
With `O=C(NN(c1ccccc1)S(=O)(=O)c1ccc(Cl)cc1)Oc1ccc2c(c1)CCC2` [Example 26, N-phenyl-N′-(2,3-dihydro-1H-inden-5-oxycarbonyl)-4-chlorophenylsulfonhydrazide], the IC50 was above 1000 nM in the data set with Raw264.7 cells and 70.5 nM in the data set on PGE2 production. Moreover, the “Inhibition of PGE2 production %” value with PGE2 production (compound at 0.1 μM) is listed as 45.8 (0.1) %.
On the same counts, the results for `CCCc1ccc(S(=O)(=O)N(NC(=O)Oc2ccc(Oc3ccccc3)cc2)c2ccccc2)cc1` [Example 20, N-phenyl-N′-(4-phenoxyphenoxycarbonyl)-4-n-propylphenylsulfonhydrazide] are above 10000 nM, 134 nM and 45.4 (0.1) %.
As to “N-phenyl-N′-(4-phenoxyphenoxycarbonyl)-2-mesitylenesulfonhydrazide [Example 16]”, the values for the IC50 with Raw264.7 cells and in the data set with PGE2 production were above 1000 nM and 177 nM, respectively. Also, the “Inhibition of PGE2 production %” value in the data set on PGE2 production (compound at 0.1 μM) is 39.8 (0.1) %.
In the case of `CCOc1ccc(OC(=O)NN(c2ccccc2)S(=O)(=O)c2ccc(OC)cc2)cc1` [Example 5, N-phenyl-N′-(4-ethoxyphenoxycarbonyl)-4-methoxyphenylsulfonhydrazide], the IC50 in the data set on Raw264.7 cells is above 100 nM; with PGE2 production it was 20.5 nM. In addition, the “Inhibition of PGE2 production %” value with PGE2 production (compound at 0.1 μM) was 94.1 (0.1) %.
For `O=C(NN(c1ccccc1)S(=O)(=O)c1ccc(Cl)cc1)Oc1ccc(Oc2ccccc2)cc1` [Example 14, N-phenyl-N′-(4-phenoxyphenoxycarbonyl)-4-chlorophenylsulfonhydrazide], the figures for the IC50 in the data set with Raw264.7 cells and in the data set on PGE2 production were above 10000 nM and 5.09 nM, respectively. Moreover, in the data set on PGE2 production (compound at 0.01 μM), the “Inhibition of PGE2 production %” value is 67.8 (0.01) %.
Take `CCOc1ccc(OC(=O)NN(c2ccccc2)S(=O)(=O)c2ccc(Cl)cc2)cc1` [Example 13, N-phenyl-N′-(4-ethoxyphenoxycarbonyl)-4-chlorophenylsulfonhydrazide]: the IC50 in the data set with Raw264.7 cells was above 10000 nM; with PGE2 production it was 5.02 nM. For the same compound, the “Inhibition of PGE2 production %” value with PGE2 production (compound at 0.01 μM) is 74.8 (0.01) %.
The like results for `CCc1ccc(OC(=O)NN(c2ccccc2)S(=O)(=O)c2ccc(Cl)cc2)cc1` [Example 12, N-phenyl-N′-(4-ethylphenoxycarbonyl)-4-chlorophenylsulfonhydrazide] were, in that order, above 10000 nM, 3.7 nM and 80.5 (0.01) %.
On the same counts, the results for `COc1ccc(S(=O)(=O)N(NC(=O)Oc2ccc3c(c2)CCC3)c2ccccc2)cc1` [Example 9, N-phenyl-N′-(2,3-dihydro-1H-inden-5-oxycarbonyl)-4-methoxyphenylsulfonhydrazide] are above 100 nM, 4.5 nM and 79.5 (0.01) %.
Regarding `COc1ccc(S(=O)(=O)N(NC(=O)Oc2ccc(OCc3ccccc3)cc2)c2ccccc2)cc1` [Example 4, N-phenyl-N′-(4-benzyloxyphenoxycarbonyl)-4-methoxyphenylsulfonhydrazide], the IC50 in the data set with Raw264.7 cells is above 1000 nM; in the data set on PGE2 production, 50 nM. For the same compound, the “Inhibition of PGE2 production %” value in the data set on PGE2 production (compound at 0.1 μM) is listed as 62.8 (0.1) %.
`O=C(NN(c1ccccc1)S(=O)(=O)c1ccc(Cl)cc1)Oc1ccccc1` [Example 10, N-phenyl-N′-phenoxycarbonyl-4-chlorophenylsulfonhydrazide]: the IC50 with Raw264.7 cells was above 10000 nM; with PGE2 production it was 5.42 nM. For the same compound, the “Inhibition of PGE2 production %” value in the data set on PGE2 production (compound at 0.01 μM) is recorded as 81.8 (0.01) %.
As for `COc1ccc(S(=O)(=O)N(NC(=O)Oc2ccc(Oc3ccccc3)cc2)c2ccccc2)cc1` [Example 6, N-phenyl-N′-(4-phenoxyphenoxycarbonyl)-4-methoxyphenylsulfonhydrazide], the IC50 is above 100 nM in the data set with Raw264.7 cells and 17.1 nM in the data set on PGE2 production. The “Inhibition of PGE2 production %” value with PGE2 production (compound at 0.1 μM) is recorded as 93.4 (0.1) %.
As for `CC(C)(C)c1ccc(S(=O)(=O)N(NC(=O)Oc2ccc(Oc3ccccc3)cc2)c2ccccc2)cc1` [Example 23, N-phenyl-N′-(4-phenoxyphenoxycarbonyl)-4-t-butylphenylsulfonhydrazide], the results for the IC50 in the data set on Raw264.7 cells and in the data set with PGE2 production were above 1000 nM and 99.6 nM, respectively. In the data set on PGE2 production (compound at 0.1 μM), the “Inhibition of PGE2 production %” value is on record as 67.9 (0.1) %.
For the compound `CC(C)c1ccc(S(=O)(=O)N(NC(=O)Oc2ccc(Oc3ccccc3)cc2)c2ccccc2)cc1` [Example 24, N-phenyl-N′-(4-phenoxyphenoxycarbonyl)-4-i-propylphenylsulfonhydrazide], the IC50 is above 1000 nM with Raw264.7 cells and 130 nM in the data set with PGE2 production. In the data set with PGE2 production (compound at 0.1 μM), the “Inhibition of PGE2 production %” value is on record as 65.4 (0.1) %.
In the case of `CC(C)(C)c1ccc(S(=O)(=O)N(NC(=O)Oc2ccc(OCc3ccccc3)cc2)c2ccccc2)cc1` [Example 22, N-phenyl-N′-(4-benzyloxyphenoxycarbonyl)-4-t-butylphenylsulfonhydrazide], the IC50 was above 100 nM with Raw264.7 cells and 56.9 nM with PGE2 production. In addition, the “Inhibition of PGE2 production %” value with PGE2 production (compound at 0.1 μM) is recorded as 69.8 (0.1) %.
Consider `O=C(NN(c1ccccc1)S(=O)(=O)c1ccc(Cl)cc1)Oc1ccc(OCc2ccccc2)cc1` [Example 15, N-phenyl-N′-(4-benzyloxyphenoxycarbonyl)-4-chlorophenylsulfonhydrazide], for which the IC50 was above 10000 nM in the data set on Raw264.7 cells and 3.42 nM in the data set with PGE2 production. In the data set on PGE2 production (compound at 0.01 μM), the “Inhibition of PGE2 production %” value is given as 84.5 (0.01) %.
Regarding `Cc1ccc(OC(=O)NN(c2ccccc2)S(=O)(=O)c2ccc(C)cc2)cc1` [Example 2, N-phenyl-N′-(4-methylphenoxycarbonyl)-4-methylphenylsulfonhydrazide], the IC50 with Raw264.7 cells is above 10000 nM; in the data set on PGE2 production it was 1010 nM. Moreover, in the data set with PGE2 production (compound at 1 μM), the “Inhibition of PGE2 production %” value is listed as 49.7 (1)^ %.
On to `CCc1ccc(OC(=O)NN(c2ccccc2)S(=O)(=O)c2ccc(OC)cc2)cc1` [Example 7, N-phenyl-N′-(4-ethylphenoxycarbonyl)-4-methoxyphenylsulfonhydrazide], for which the values for the IC50 in the data set on Raw264.7 cells and in the data set on PGE2 production were above 100 nM and 28.5 nM, respectively. Besides, the “Inhibition of PGE2 production %” value in the data set on PGE2 production (compound at 0.1 μM) is given as 90.9 (0.1) %.
